# Source: patent US7135336B1, “Use of Xenopus laevis oocytes a microincubators” (University of South Florida, priority 2004, dated 2006)
# Molecular target: T1, human α4/β2 nicotinic receptors (Homo sapiens, UniProt P17787+P43681)
# T1 construct: expressed in transfected cells; host or cells: Xenopus laevis oocytes injected with α4/β2 RNA (BMSC-injected and non-injected control oocytes)
# Experiment: Two electrode voltage clamp recordings of acetylcholine chloride concentration response in Xenopus laevis oocytes expressing human α4/β2 nicotinic receptors
# Format: cell-based
# Description: Electrophysiological Recordings. The last set of experiments was designed to investigate survival and lifespan differences between frog oocytes injected with BMSC and non-injected oocytes. Both groups were carefully maintained under the same conditions for a prolonged period of time. […] Whole cell currents were measured at room temperature, 48 hours after RNA injection.
# Finally, the last set of experiments was devoted to the study of the longevity of recipient oocytes with control test for their functional activity in the form of ability of oocytes to express α4/β2 subunits of human nicotinic receptors in their membranes 48h after RNA injection.
# [1] = BMSC injected 44 day old oocytes
# T1 sequence (P43681 29-627 limits assumed): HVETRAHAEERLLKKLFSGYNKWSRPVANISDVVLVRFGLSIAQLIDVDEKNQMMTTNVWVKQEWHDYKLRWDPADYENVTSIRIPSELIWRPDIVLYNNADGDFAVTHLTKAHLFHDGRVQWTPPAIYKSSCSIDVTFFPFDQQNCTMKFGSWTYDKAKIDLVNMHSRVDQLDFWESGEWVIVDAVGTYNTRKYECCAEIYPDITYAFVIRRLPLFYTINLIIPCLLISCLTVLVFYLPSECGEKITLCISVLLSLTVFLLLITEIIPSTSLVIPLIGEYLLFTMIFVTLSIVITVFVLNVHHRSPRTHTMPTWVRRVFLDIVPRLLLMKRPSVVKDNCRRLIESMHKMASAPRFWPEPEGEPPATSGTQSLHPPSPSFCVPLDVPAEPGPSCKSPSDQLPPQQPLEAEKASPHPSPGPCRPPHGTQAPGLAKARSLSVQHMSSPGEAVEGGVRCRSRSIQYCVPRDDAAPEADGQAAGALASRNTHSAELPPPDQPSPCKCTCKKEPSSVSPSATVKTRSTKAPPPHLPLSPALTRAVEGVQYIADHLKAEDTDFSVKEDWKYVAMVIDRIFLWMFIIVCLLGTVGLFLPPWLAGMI
# T1 sequence (P17787 26-502): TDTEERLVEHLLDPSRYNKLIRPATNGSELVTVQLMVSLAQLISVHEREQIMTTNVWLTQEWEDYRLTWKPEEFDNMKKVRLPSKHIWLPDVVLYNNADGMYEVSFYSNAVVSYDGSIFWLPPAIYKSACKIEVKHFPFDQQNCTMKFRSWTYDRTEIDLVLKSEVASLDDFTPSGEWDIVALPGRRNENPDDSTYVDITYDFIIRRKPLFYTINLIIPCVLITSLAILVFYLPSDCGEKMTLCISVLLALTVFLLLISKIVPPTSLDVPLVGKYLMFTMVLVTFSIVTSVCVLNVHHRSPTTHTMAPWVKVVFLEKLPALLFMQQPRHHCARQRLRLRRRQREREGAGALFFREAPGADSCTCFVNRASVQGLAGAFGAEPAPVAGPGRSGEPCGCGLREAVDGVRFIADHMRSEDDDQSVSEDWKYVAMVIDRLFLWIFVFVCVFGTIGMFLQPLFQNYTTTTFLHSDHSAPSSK
compound,measurement,setting,value
"CC(=O)OCC[N+](C)(C)C.[Cl-] [Ach, acetylcholine chloride]",nH1 (high-affinity Hill coefficient),[1],0.51
same,nH2 (low-affinity Hill coefficient),[1],3.0
same,"times lower concentration of agonist for 50% of Ach evoked peak current amplitude, BMSC injected vs control oocytes",high-affinity sites,2.7 times
same,"times lower concentration of Ach for 50% of peak current, BMSC injected vs control oocytes",low affinity sites,3.8 times
same,nH1 (high-affinity Hill coefficient),non-injected control oocytes,0.68
same,nH2 (low-affinity Hill coefficient),non-injected control oocytes,2.6
